# Laboratory results: patent US20240285548A1, “AGENT FOR PREVENTION AND/OR TREATMENT OF COGNITIVE IMPAIRMENT” (NATIONAL CEREBRAL AND CARDIOVASCULAR CENTER, priority 2022, published 2024)
# Tests used:
# [1] = tested on: human Alzheimer's patients; conditions: 500 mg of resveratrol; NPL 5; cited from earlier work
# [2] = tested on: patients with asymptomatic moderate or severe carotid artery stenosis/occlusion; assay: Montreal Cognitive Assessment (MoCA), change during observation period; format: in vivo, human; conditions: for β, resveratrol intake vs MoCA visuospatial cognitive function/executive function change: 79 patients, linear regression
# Protocol: (§1) Subjects were patients with asymptomatic moderate or severe carotid artery stenosis/occlusion who visited the National Cerebral and Cardiovascular Center in Japan from July 2020 to August 2021 and who were taking or not taking trans-resveratrol in an amount of 30 mg/day. The inclusion criteria were as follows: (1) patients with asymptomatic moderate or severe carotid artery stenosis/occlusion who presented with a peak systolic velocity of 130 cm/s or more at a stenotic lesion on carotid ultrasonography (corresponding to a stenotic diameter of >50%) and who underwent test (2) and/or (3); (2) patients who underwent cognitive function tests (Alzheimer's Disease Assessment Scale-Cognitive subscale 13 (ADAS-Cog) and Montreal Cognitive Assessment (MoCA)) longitudinally twice; (3) patients who also underwent ^15O-gas positron emission tomography (PET) longitudinally twice in a similar manner. The primary outcome is a comparison of the amounts of change in ADAS-Cog during the observation period (differential analysis). The secondary outcomes are (1) a comparison of the amounts of change in MoCA during the observation period (differential analysis), and (2) a comparison of the amounts of change in cerebral blood flow on ^15O -gas PET (differential analysis). This study was initiated after receiving approval from the Research Ethics Review Committee of the National Cerebral and Cardiovascular Center (Research Project Number: R20113). In Example 1 above, the 82 subject patients included patients who were tested for both change in cognitive function and change in cerebral blood flow, as well as patients who were tested for only either change in cognitive function or change in cerebral blood flow. Therefore, based on the above results, the same analysis as in Example 1 was performed again on 79 patients who were tested for both change in cognitive function and change in cerebral blood flow from among the 82 patients. […] The baseline mean total MoCA scores were 23.6±3.6 in the non-RES group and 23.7±3.6 in the RES group. Further, the mean total ADAS-Cog scores were 14.6±5.4 in the non-RES group and 15.8±7.2 in the RES group. The mean observation periods were 244.8±86.9 and 221.2±61.9 days, respectively (p=0.18). The baseline scores were under the category of mild cognitive impairment (MCI) (Table 4). For the 79 patients, the amount of change in MoCA and ADAS-Cog scores was examined to investigate changes in cognitive function associated with administration of resveratrol. […] According to ADAS-Cog, a significant association was found with cognitive function improvement in the RES group in terms of delayed recall (0.5±1.6 VS. −0.9±1.8; p=0.001), memory domain (0.4±3.3 VS. −1.6±3.1; p=0.007), and total score (0.5±3.7 vs. −1.5±3.4; p=0.019). Therefore, after adjusting for age, gender, hypertension, diabetes, dyslipidemia, and coronary artery disease, a multivariate linear regression model analysis was performed. Resveratrol intake was an independent predictor of improvement in spatial cognitive and executive functions (β=0.26, 95% confidence interval [CI]: 0.062-1.15, p=0.03) and memory (memory domain: β=−0.26, 95% CI: −3.23 to −0.15, p=0.032; delayed recall: β=−0.37, 95% CI: −2.16 to −0.54, p=0.001) (Table 5). Accordingly, resveratrol may have contributed to improvement in the visuospatial cognitive function, executive function, and memory.
# [3] = tested on: patients with asymptomatic moderate or severe carotid artery stenosis/occlusion; assay: Alzheimer's Disease Assessment Scale-Cognitive subscale 13 (ADAS-Cog), change during observation period; format: in vivo, human; conditions: for β, resveratrol intake vs ADAS-Cog delayed recall change / β, resveratrol intake vs ADAS-Cog memory domain change / β, resveratrol intake vs ADAS-Cog total change: 79 patients, linear regression
# Protocol: as §1
# [4] = tested on: patients with asymptomatic moderate or severe carotid artery stenosis/occlusion; assay: Adverse events during long-term resveratrol intake; format: in vivo, human; conditions: Example 2, 30 mg/day
# Excerpt: The baseline mean total MoCA scores were 23.6±3.6 in the non-RES group and 23.7±3.6 in the RES group. Further, the mean total ADAS-Cog scores were 14.6±5.4 in the non-RES group and 15.8±7.2 in the RES group. The mean observation periods were 244.8±86.9 and 221.2±61.9 days, respectively (p=0.18). The baseline scores were under the category of mild cognitive impairment (MCI) (Table 4).
# To identify the reason associated with significant improvements in the visuospatial cognitive function, executive function, and memory in the RES group, cerebral blood flow was measured. Initially, the cerebral blood flow change in each entire hemisphere was analyzed. […] To examine the changes in detail, the cerebral blood flow was analyzed in terms of the frontal lobe, basal ganglia, and thalamus, which govern the visuospatial cognitive and executive functions, and memory. Longitudinally, long-term resveratrol intake was associated with a significant increase in cerebral blood flow in the right frontal lobe (non-RES group: 0.001±0.037, RES group: 0.019±0.033; p=0.027)). […] Therefore, long-term resveratrol intake may contribute not only to improvement of cognitive function but also to increase in cerebral blood flow.
# [5] = tested on: patients with asymptomatic moderate or severe carotid artery stenosis/occlusion; assay: 15O-gas PET: cerebral blood flow, cerebral oxygen metabolic rate, cerebral oxygen uptake rate; format: in vivo, human; design: Cerebral blood flow change: entire right hemisphere / Cerebral blood flow change: entire left hemisphere / Cerebral blood flow change: right frontal lobe / Cerebral blood flow change: right callosomarginal artery area / Cerebral blood flow change: left callosomarginal artery area / Cerebral blood flow change: left lenticular nucleus / Cerebral blood flow change: left thalamus: unit not given here; conditions: for β, resveratrol intake vs cerebral blood flow change: Frontal circulation area / β, resveratrol intake vs cerebral blood flow change: Left callosomarginal artery area / β, resveratrol intake vs cerebral blood flow change: Left lenticular nucleus / β, resveratrol intake vs cerebral blood flow change: Right callosomarginal artery area / β, resveratrol intake vs cerebral blood flow change: Right precentral artery / β, resveratrol intake vs cerebral blood flow change: Thalamus, Left / β, resveratrol intake vs cerebral blood flow change: Thalamus, Right: 79 patients, linear regression
# Protocol: Subjects were patients with asymptomatic moderate or severe carotid artery stenosis/occlusion who visited the National Cerebral and Cardiovascular Center in Japan from July 2020 to August 2021 and who were taking or not taking trans-resveratrol in an amount of 30 mg/day. The inclusion criteria were as follows: (1) patients with asymptomatic moderate or severe carotid artery stenosis/occlusion who presented with a peak systolic velocity of 130 cm/s or more at a stenotic lesion on carotid ultrasonography (corresponding to a stenotic diameter of >50%) and who underwent test (2) and/or (3); (2) patients who underwent cognitive function tests (Alzheimer's Disease Assessment Scale-Cognitive subscale 13 (ADAS-Cog) and Montreal Cognitive Assessment (MoCA)) longitudinally twice; (3) patients who also underwent ^15O-gas positron emission tomography (PET) longitudinally twice in a similar manner. The primary outcome is a comparison of the amounts of change in ADAS-Cog during the observation period (differential analysis). The secondary outcomes are (1) a comparison of the amounts of change in MoCA during the observation period (differential analysis), and (2) a comparison of the amounts of change in cerebral blood flow on ^15O -gas PET (differential analysis). This study was initiated after receiving approval from the Research Ethics Review Committee of the National Cerebral and Cardiovascular Center (Research Project Number: R20113). All PET images were anatomically standardized using linear and nonlinear transformations with SPM2 to ensure that the brain images of all patients had the same anatomical format, and the cerebral blood flow was quantified using 3DSRT (PDRadiopharma Inc., Tokyo, Japan). Each hemisphere was divided into twelve ROI segments, grouped according to the arterial supply: callosomarginal artery area, pericallosal artery area, precentral artery area, central artery area, angular artery area, parietal lobe, temporal lobe, occipital lobe, hippocampus, lenticular nucleus, thalamus, and cerebellum. The frontal circulation areas were defined to be the callosomarginal artery area, pericallosal artery area, precentral artery area, and central artery area. In quantifying the relative cerebral blood flow, counts under each ROI were normalized to an average cerebral blood flow count within the bilateral cerebellum. […] Using 3D-SRT (FUJIFILM RI Pharma, Tokyo, Japan), the difference in the amount of change was analyzed (for the RES group, the difference between the cerebral blood flow before RES administration (relative to cerebellum) and the cerebral blood flow after RES administration (relative to cerebellum); for the non-RES group, the cerebral blood flow at intervals of 6 months to 1 year (relative to cerebellum)). […] In Example 1 above, the 82 subject patients included patients who were tested for both change in cognitive function and change in cerebral blood flow, as well as patients who were tested for only either change in cognitive function or change in cerebral blood flow. Therefore, based on the above results, the same analysis as in Example 1 was performed again on 79 patients who were tested for both change in cognitive function and change in cerebral blood flow from among the 82 patients. To identify the reason associated with significant improvements in the visuospatial cognitive function, executive function, and memory in the RES group, cerebral blood flow was measured. Initially, the cerebral blood flow change in each entire hemisphere was analyzed. […] To examine the changes in detail, the cerebral blood flow was analyzed in terms of the frontal lobe, basal ganglia, and thalamus, which govern the visuospatial cognitive and executive functions, and memory. Longitudinally, long-term resveratrol intake was associated with a significant increase in cerebral blood flow in the right frontal lobe (non-RES group: 0.001±0.037, RES group: 0.019±0.033; p=0.027)). […]
# [6] = tested on: carotid artery occlusion model mice; conditions: NPL 3; cited from earlier work
# [7] = Example 1, RES group 37 of 82 patients, 30 mg/day
# [8] = Example 2, RES group n = 36 of 79 patients, 30 mg/day
# [9] = Example 2, multivariate analysis
# [10] = Example 1, relative to cerebellum, before vs after RES administration, 30 mg/day
# [11] = Example 2, multivariable analysis
# [12] = Example 2, univariable analysis
smiles,measurement,setting,value
"Oc1ccc(/C=C/c2cc(O)cc(O)c2)cc1 [resveratrol, 3,4′, 5-trihydroxy-trans-stilbene]",Effect in human Alzheimer's patients,[1],no effect was observed
same,Amount of change in MoCA: Executive function/spatial cognitive function,[2]; [7],0.35 ± 1.0
same,"β, resveratrol intake vs MoCA visuospatial cognitive function/executive function change","[2]; Example 2, multivariate analysis adjusted for age, gender, hypertension, diabetes, dyslipidemia, coronary artery disease",0.26
same,"β, resveratrol intake vs MoCA visuospatial cognitive function/executive function change","[2]; Example 2, univariate analysis",0.257
same,Amount of change in MoCA: visuospatial cognitive and executive functions,[2]; [8],0.4±0.9
same,Amount of change in total MoCA score,[2]; [8],0.4±2.6
same,Amount of change in ADAS-Cog: Total,[3]; [7],−1.48 ± 3.4
same,Amount of change in ADAS-Cog: delayed recall,[3]; [7],−0.89 ± 1.7
same,Amount of change in ADAS-Cog: memory domain,[3]; [7],−1.65 ± 3.0
same,"β, resveratrol intake vs ADAS-Cog delayed recall change",[3]; [9],−0.37
same,"β, resveratrol intake vs ADAS-Cog memory domain change",[3]; [9],−0.26
same,"β, resveratrol intake vs ADAS-Cog total change",[3]; [9],−0.18
same,"β, resveratrol intake vs ADAS-Cog delayed recall change","[3]; Example 2, univariate analysis",−0.37
same,"β, resveratrol intake vs ADAS-Cog memory domain change","[3]; Example 2, univariate analysis",−0.30
same,"β, resveratrol intake vs ADAS-Cog total change","[3]; Example 2, univariate analysis",−0.26
same,Amount of change in ADAS-Cog: delayed recall,[3]; [8],−0.9±1.8
same,Amount of change in ADAS-Cog: memory domain,[3]; [8],−1.6±3.1
same,Amount of change in ADAS-Cog: total score,[3]; [8],−1.5±3.4
same,Adverse events,[4],no adverse events observed
same,Cerebral oxygen uptake rate,"[5]; Example 1, 30 mg/day",no association
same,Cerebral oxygen metabolic rate,"[5]; Example 1, all areas, 30 mg/day",tendency for an association between RES intake and an increase in the cerebral oxygen metabolic rate
same,Cerebral blood flow in other areas,"[5]; Example 1, areas other than those of Table 3, relative to cerebellum",tendency for an association between RES intake and an increase in the cerebral blood flow
same,Amount of change in cerebral blood flow: Left callosomarginal artery area,[5]; [10],0.171 ± 0.42
same,Amount of change in cerebral blood flow: Left putamen,[5]; [10],0.19 ± 0.57
same,Amount of change in cerebral blood flow: Left thalamus,[5]; [10],0.449 ± 0.90
same,Amount of change in cerebral blood flow: Right callosomarginal artery area,[5]; [10],0.179 ± 0.34
same,Amount of change in cerebral blood flow: Right frontal lobe,[5]; [10],0.215 ± 0.35
same,Amount of change in cerebral blood flow: Right thalamus,[5]; [10],0.393 ± 0.85
same,"β, resveratrol intake vs cerebral blood flow change: Frontal circulation area",[5]; [11],0.25
same,"β, resveratrol intake vs cerebral blood flow change: Left callosomarginal artery area",[5]; [11],0.27
same,"β, resveratrol intake vs cerebral blood flow change: Left lenticular nucleus",[5]; [11],0.31
same,"β, resveratrol intake vs cerebral blood flow change: Right callosomarginal artery area",[5]; [11],0.29
same,"β, resveratrol intake vs cerebral blood flow change: Right precentral artery",[5]; [11],0.25
same,"β, resveratrol intake vs cerebral blood flow change: Thalamus, Left",[5]; [11],0.29
same,"β, resveratrol intake vs cerebral blood flow change: Thalamus, Right",[5]; [11],0.23
same,"β, resveratrol intake vs cerebral blood flow change: Frontal circulation area",[5]; [12],0.25
same,"β, resveratrol intake vs cerebral blood flow change: Left callosomarginal artery area",[5]; [12],0.24
same,"β, resveratrol intake vs cerebral blood flow change: Left lenticular nucleus",[5]; [12],0.29
same,"β, resveratrol intake vs cerebral blood flow change: Right callosomarginal artery area",[5]; [12],0.28
same,"β, resveratrol intake vs cerebral blood flow change: Right precentral artery",[5]; [12],0.25
same,"β, resveratrol intake vs cerebral blood flow change: Thalamus, Left",[5]; [12],0.29
same,"β, resveratrol intake vs cerebral blood flow change: Thalamus, Right",[5]; [12],0.24
same,Cerebral blood flow change: entire left hemisphere,[5]; [8],0.014±0.031
same,Cerebral blood flow change: entire right hemisphere,[5]; [8],0.016±0.032
same,Cerebral blood flow change: left callosomarginal artery area,[5]; [8],0.017±0.042
same,Cerebral blood flow change: left lenticular nucleus,[5]; [8],0.033±0.06
same,Cerebral blood flow change: left thalamus,[5]; [8],0.045±0.090
same,Cerebral blood flow change: right callosomarginal artery area,[5]; [8],0.018±0.034
same,Cerebral blood flow change: right frontal lobe,[5]; [8],0.019±0.033
same,Cerebral blood flow change: right precentral artery area,[5]; [8],0.021±0.035
same,Cerebral blood flow change: right thalamus,[5]; [8],0.039±0.85
same,Autophagy,[6],activation of autophagy
same,Cognitive function,[6],improvement in cognitive function
same,Oxidative stress-induced nerve damage,[6],reduced oxidative stress-induced nerve damage
